Source: BindingDB's records for doi:10.1016/s0960-894x(01)00594-7 (The University of Newcastle, 2001)

Molecular target: Protein phosphatase 1 catalytic subunit (PPP1CA)
Assay: Inhibitory concentration against protein phosphatase 1 (PP1) was determined

IC50	SMILES
0.095 mM	O=C(O)CC[C@H](C(=O)O)N1C(=O)[C@@H]2[C@H](C1=O)[C@H]1CC[C@@H]2O1 [(R)-2-((1S,2R,6S,7R)-3,5-Dioxo-10-oxa-4-aza-tricyclo[5.2.1.0*2,6*]dec-4-yl)-pentanedioic acid]
> 1 mM	O=C(O)[C@H](Cc1ccccc1)N1C(=O)[C@@H]2[C@H](C1=O)[C@H]1CC[C@@H]2O1 [(S)-2-((1S,2R,6S,7R)-3,5-Dioxo-10-oxa-4-aza-tricyclo[5.2.1.0*2,6*]dec-4-yl)-3-phenyl-propionic acid]
> 1 mM	O=C(O)[C@@H](Cc1ccccc1)N1C(=O)[C@@H]2[C@H](C1=O)[C@H]1CC[C@@H]2O1 [(R)-2-((1S,2R,6S,7R)-3,5-Dioxo-10-oxa-4-aza-tricyclo[5.2.1.0*2,6*]dec-4-yl)-3-phenyl-propionic acid]

SMILES	IC50
CC(C)C[C@H](C(=O)O)N1C(=O)[C@@H]2[C@H](C1=O)[C@H]1CC[C@@H]2O1 [(R)-2-((1S,2R,6S,7R)-3,5-Dioxo-10-oxa-4-aza-tricyclo[5.2.1.0*2,6*]dec-4-yl)-4-methyl-pentanoic acid]	> 1 mM
CC(C)C[C@@H](C(=O)O)N1C(=O)[C@@H]2[C@H](C1=O)[C@H]1CC[C@@H]2O1 [(S)-2-((1S,2R,6S,7R)-3,5-Dioxo-10-oxa-4-aza-tricyclo[5.2.1.0*2,6*]dec-4-yl)-4-methyl-pentanoic acid]	> 1 mM
